# Results from patent US20020088029A1, “Plant transformation methods” (priority 1998, published 2002).
# Key:
# maize embryos = test: Inoculation of maize embryos with LBA4404 with or without silver nitrate, callus initiation; assay type: cell-based
# Description: Inhibition of Agrobacterium-induced programmed cell death Preparation of tissues for inoculation with Agrobacterium: Immature embryos (1.2 to 2.2 mm in length) are aseptically excised 14-15 days after pollination from surface-sterilized, greenhouse-grown ears and plated scutellum up on callus initiation medium, 2DG4+5 mg/l chloramben (2DG4-5Chl).
# Immature embryos are sterilized as described above and plated on callus initiation medium (2DG4-5Chl) and cultured therein for 1 to 7 days. The resulting tissue is used as samples for inoculation.
# Agrobacterium is grown for 3 days on YP medium (5 g/l yeast extract, 10 g/l peptone, 5 g/l NaCl, 15 g/l agar, pH 6.8) supplemented with 50 mg/l spectinomycin and 10 mg/l tetracycline. Bacteria are collected with a loop and suspended in N6 liquid medium at a density ranging from 10^9 to 5 10^9 cells/ml. Agrobacterium cells can also be collected from an overnight culture in YP medium and resuspended in N6 liquid medium.
# Maize tissues prepared as described above are inoculated with Agrobacterium. […] Tissues are also inoculated with a 5 μl drop 10^9 to 5×10^9 cells/ml of an Agrobacterium suspension placed on the top of the tissue.
# maize type I callus = test: Inoculation of maize type I callus with or without silver nitrate, survival of tissues; assay type: cell-based; conditions: ½ month old type I callus, co-inoculation 2DG4 + AgNO3, transfer 2DG4 + AgNO3 + Cef, 2 weeks
# tobacco leaf discs = conditions: silver nitrate present during co-cultivation; LBA4404(GIGUP) 10^9 cells/ml
# cell line HE/89 = test: DNA fragmentation (DNA ladders) in maize cells inoculated with Agrobacterium; assay type: cell-based, Zea mays L.; conditions: HE/89 cells inoculated with Agrobacterium, agent added
# Description: In order to determine the mechanism of cell death induced by Agrobacterium in maize tissues, genomic DNA is extracted from plant suspension cells harvested 24 or 48 hours after inoculation with Agrobacterium. Exposure to Agrobacterium causes DNA fragmentation in both maize lines, with a pattern characteristic of internucleosomal fragmentation, which is considered an early hallmark of programmed cell death. […] Furthermore, maize cells undergoing programmed cell death could not induce cell death of fresh maize embryogenic tissues.
# Further evidence for Agrobacterium inducing DNA fragmentation is obtained by investigating the sensitivity of the process to Zn^2+ and Ca^2+. […] These characteristics are fully consistent with the effect of these divalent cations on the endogenous endonucleases responsible for DNA cleavage during apoptosis in animal system. The intensity of the ladder also is decreased by addition of cycloheximide, evidence that the process requires de novo gene expression. […] Fragmentation of DNA during apoptosis is also detected in situ by reagents that react with the exposed hydroxyls on the nucleosome units. 12 day old maize embryos from a proprietary elite line of Lancaster parentage are inoculated with LBA4404 and plated on DG4 medium supplemented with chloramben. Koziel, M.G., & al. 1993. Bio/Technology 11: 194-200. Apoptotic cells are detected by in situ staining with TACS-1 kit (Trevigen), which involves end labeling the DNA fragments by the klenow enzyme using dNTP conjugated to a detectable marker, giving a dark insoluble precipitate indicative of genomic fragmentation. Cullivier, O., Pirianov, G., Kleuser, B., Vanek, P.G., Coso, O.A., Gutking, J.S. and Spiegel, S. (1996) Nature 381, 800-803. Embryos are soaked in 3.7% formadehyde solution and processed as described by the manufacturer. To detect genomic DNA cleavage in situ, fixed embryos are treated with the TACS-1 kit. Fixed cross-sections are first treated with proteinase K for 5 min at room temperature and then dipped for 5 min into 2% hydrogen peroxide to remove endogenous peroxidase. […]
# [1] = system: HE/89 maize friable embryogenic callus
# Description: The following experiments employ maize inbred lines (Zea mays L.) HE/89 and a line here designated as Elite 1. […] Suspension culture of Elite 1 is initiated from friable embryogenic callus selected from immature embryos. The HE/89 line is grown in a modified liquid N6 medium amended with 500 mg/l Bacto tryptone, 30 g/l sucrose and 0.5 mg/l 2,4-dichlorophenoxy acetic acid (2,4-D) (N6M). The Elite 1 line is grown in N6 liquid medium (Chu et al., 1975) supplemented with 30 g/l sucrose and 2 mg/l 2,4-D (2N63S). The Nicotiana tabacum cell line NT-1 grown in Murashige and Skoog medium supplemented with 2 mg/l of 2,4-D and sucrose (30 g/l) (MS3S) is used as an Agrobacterium-susceptible control. Suspension cultures are maintained in liquid medium on a rotary shaker (120 rpm) and are subcultured every 7 days.
# Bacteria are grown in YP medium (5 g/L yeast extract, 10 g/l peptone, 5 g/l NaCl, pH 6.8) for 24 hr at 28° C. […]
# Friable embryogenic callus of HE/89 maize and of a proprietary elite inbred maize maintained in liquid medium are incubated with Agrobacterium for 10 min, 1 hr, 24 hr or 48 hrs prior to transfer to cefotaxim-containing medium. […] The presence or absence of necrosis is scored 2, 4 and 7 days after inoculation and the relative intensity of necrosis is expressed as follow: +, rare formation of necrosis; ++, weak necrosis; +++, strong necrosis; ++++, very strong necrosis.
structure (smiles),measurement,setting,value
"O=[N+]([O-])[O-].[Ag+] [AgNO3, silver nitrate]",embryos able to produce embryogenic calli,maize embryos; embryos plated on medium containing silver nitrate after Agrobacterium inoculation,About 50%
same,Score (callus initiation),"maize embryos; no pretreatment, co-inoculation 2DG4, transfer 2DG4 + AgNO3 + Cef, LBA4404 (GIGUP) 10^9 cells/ml, two weeks after inoculation",30%
same,Score (survival of tissues),maize type I callus; pretreatment 2DG4 + AgNO3,95%
same,Score (survival of tissues),maize type I callus; pretreatment 2DG4,75%
same,GUS activity in tobacco leaves (Agrobacterium virulence),tobacco leaf discs,No significant decrease
[Ca+2] [Ca^2+],intensity of DNA ladders (genomic fragmentation),cell line HE/89,increased the intensity of DNA ladders
[Zn+2] [Zn^2+],intensity of DNA ladders (genomic fragmentation),cell line HE/89,markedly reduced genomic fragmentation
CO/N=C(\C(=O)N[C@@H]1C(=O)N2C(C(=O)O)=C(COC(C)=O)CS[C@H]12)c1csc(N)n1 [cefotaxime],necrosis of maize tissue,[1],does not cause the maize tissue to become necrotic
C[C@@H]1C[C@@H]([C@H](O)CC2CC(=O)NC(=O)C2)C(=O)[C@@H](C)C1 [cycloheximide],intensity of DNA ladders (genomic fragmentation),cell line HE/89,decreased
